According to patent publication US11648248B1 (King Abdulaziz University, priority 2022, dated 2023):

Key:
Gram-positive bacteria = experiment: Bacteriostatic or bactericidal by MBC versus MIC; format: cell-based; conditions: MBC less than or at least three-fold the MIC
Description: Based upon the initial results obtained, the active compounds were further screened against additional clinical isolates of methicillin-sensitive S. aureus (MSSA), methicillin-resistant S. aureus (MRSA), vancomycin-resistant S. aureus (VRSA), Staphylococcus epidermidis, vancomycin-resistant Enterococcus faecium (VRE), vancomycin-resistant Enterococcus faecalis (VRE) and Streptococcus pneumoniae, as presented in Table 2. Additionally, we examined whether the compounds were bacteriostatic (inhibit bacteria from growing) or bactericidal (kill bacteria) by determining the minimum bactericidal concentration (MBC). The MBC was determined by plating 5 μL from each well where no growth was present (in the MIC plates) onto tryptic soya agar plates and incubating plates at 37° C. for 24 hours. The MBC was categorized as the lowest concentration that generated a 99.9% reduction in bacterial colony-forming units (Table 3).

Gram-positive strains = experiment: Relative MIC compared to reference drugs (FIG. 3); format: cell-based
Description: FIG. 3. Relative MIC of MY31 compared to reference drugs.
For instance, it stopped the growth of VRSA strains with more potency than sorafenib (the prototype) and, as expected, much higher than vancomycin. […] Material and Methods

SMILES	bacteriostatic or bactericidal (MBC compared with MIC) (Gram-positive bacteria)	bacteriostatic activity relative to tested compounds and positive control antibiotics (Gram-positive strains)
O=C(Nc1ccc(-c2ccc(=O)[nH]n2)cc1)Nc1ccc(Cl)c(Cl)c1 [MY21, 1-(3,4-dichlorophenyl)-3-(4-(6-oxo-1,6-dihydropyridazin-3-yl)phenyl)urea]	bactericidal	
O=C(Nc1ccc(Oc2ccc(=O)[nH]n2)cc1)Nc1ccc(Cl)c(Cl)c1 [MY24, 1-(3,4-dichlorophenyl)-3-(4-((6-oxo-1,6-dihydropyridazin-3-yl)oxy)phenyl)urea]	bacteriostatic	
O=C(Nc1ccc(Oc2ccc(=O)[nH]n2)cc1)Nc1ccc(Cl)c(C(F)(F)F)c1 [MY31, 1-(4-chloro-3-(trifluoromethyl)phenyl)-3-(4-((6-oxo-1,6-dihydropyridazin-3-yl)oxy)phenyl)urea]	bacteriostatic	highest bacteriostatic activity among the tested compounds
